We go through 25 compounds from PubChem BioAssay AID278 (DTP/NCI, 2004).

The subject of this experiment is nude mice, A549 intrarenal xenograft, tumor weight change. Nature of the experiment: NCI In Vivo Anticancer Drug Screen. Data for tumor model A549 Human Adenocarcinoma of Lung with characteristics of Type II Alveolar Epithelial cells (intrarenal inoculation) in NU/NU BALB/C (nude) mice. The following applies: endpoint: mean tumor weight change, schedule: Q04DX003 (ip), higher = larger tumour. A digest of the protocol:
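Mice bearing transplantable tumors were treated and survival or tumor size recorded. Values are given as treated-group measurement divided by vehicle-control measurement (T/C).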

Setting [1] is: dose: 100.0 mg/kg/injection, vehicle: saline with Tween-80.
[2] abbreviates: dose: 37.5 mg/kg/injection, vehicle: Klucel (hydroxypropylcellulose) (HPC).
Where [3] appears, read: dose: 75.0 mg/kg/injection, vehicle: Klucel (hydroxypropylcellulose) (HPC).
The mark [4] stands for this setting: dose: 12.5 mg/kg/injection, vehicle: saline with Tween-80.
[5] abbreviates: dose: 25.0 mg/kg/injection, vehicle: saline with Tween-80.
The mark [6] stands for this setting: dose: 50.0 mg/kg/injection, vehicle: saline with Tween-80.
The mark [7] stands for this setting: dose: 150.0 mg/kg/injection, vehicle: saline with Tween-80.
[8] abbreviates: dose: 300.0 mg/kg/injection, vehicle: saline with Tween-80.
Where [9] appears, read: dose: 600.0 mg/kg/injection, vehicle: saline with Tween-80.
The mark [10] stands for this setting: dose: 150.0 mg/kg/injection, vehicle: Klucel (hydroxypropylcellulose) (HPC).
The mark [11] stands for this setting: dose: 300.0 mg/kg/injection, vehicle: Klucel (hydroxypropylcellulose) (HPC).
Where [12] appears, read: dose: 12.5 mg/kg/injection, vehicle: saline.
Where [13] appears, read: dose: 25.0 mg/kg/injection, vehicle: saline.

Results filed as inconclusive are left out.

On to `N[C@@H](Cc1c[nH]c2ccccc12)C(=O)Nc1nncs1`, for which the T/C is, setting by setting: (dose: 150.0 mg/kg/injection, vehicle: suspension in saline) 74 % of control; (dose: 300.0 mg/kg/injection, vehicle: suspension in saline) 67 % of control; (dose: 600.0 mg/kg/injection, vehicle: suspension in saline) 70 % of control.
Turning to `COc1ccc2c(c1)-c1nn(CCCN(C)C)c3ccc([N+](=O)[O-])c(c13)N2`, the T/C reads like this: (dose: 12.5 mg/kg/injection, vehicle: water) 61 % of control; (dose: 25.0 mg/kg/injection, vehicle: water) 81 % of control; (dose: 50.0 mg/kg/injection, vehicle: water) 14 % of control; (dose: 100.0 mg/kg/injection, vehicle: water) 27 % of control.
In the case of `NC(=S)N/N=C/c1ccc(O)cn1`, the T/C reads like this: under setting [1], 46 % of control; (dose: 200.0 mg/kg/injection, vehicle: saline with Tween-80) 57 % of control; (dose: 400.0 mg/kg/injection, vehicle: saline with Tween-80) 53 % of control.
Turning to `O=[N+]([O-])c1ccc([I+]c2ccccc2)cc1`, the T/C is 35 % of control (dose: 18.75 mg/kg/injection, vehicle: Klucel (hydroxypropylcellulose) (HPC)); 101 % of control under setting [2]; 51 % of control under setting [3].
As for `CCOC(=O)/N=[N+](\[O-])c1ccccc1`, the T/C runs as follows: under setting [4], 156 % of control; under setting [5], 245 % of control; under setting [6], 217 % of control.
With `C=C1c2cccc(O)c2C(O)=C2C(=O)[C@]3(O)C(O)=C(C(N)=O)C(=O)[C@@H](N(C)C)[C@@H]3[C@@H](O)[C@H]12`, the T/C under setting [3] was 96 % of control.
With `O=C1C(=O)c2cccnc2-c2ncccc21`, the T/C is 59 % of control (dose: 1.25 mg/kg/injection, vehicle: Klucel (hydroxypropylcellulose) (HPC)); 55 % of control (dose: 2.5 mg/kg/injection, vehicle: Klucel (hydroxypropylcellulose) (HPC)); 6 % of control (dose: 10.0 mg/kg/injection, vehicle: Klucel (hydroxypropylcellulose) (HPC)).
Turning to `O=S(=O)(CCCCl)SCCCCl`, the T/C runs as follows: (dose: 40.0 mg/kg/injection, vehicle: suspension in saline) 81 % of control; (dose: 80.0 mg/kg/injection, vehicle: suspension in saline) 86 % of control; (dose: 160.0 mg/kg/injection, vehicle: suspension in saline) 105 % of control; (dose: 320.0 mg/kg/injection, vehicle: suspension in saline) 112 % of control.
As to `CCCCNc1ccc2nnc(C)n2n1`, the T/C is 75 % of control (dose: 75.0 mg/kg/injection, vehicle: DMSO); 19 % of control (dose: 150.0 mg/kg/injection, vehicle: DMSO); 65 % of control (dose: 300.0 mg/kg/injection, vehicle: DMSO).
For the compound `COC1=C(C)C(=O)C2=C(C1=O)C(CO)N1C(C#N)C3CC4C(C1C2N1CCOC41)N3C` (configuration not stated), the T/C is, setting by setting: (dose: 1.25 mg/kg/injection, vehicle: saline + alcohol) 117 % of control; (dose: 2.5 mg/kg/injection, vehicle: saline + alcohol) 45 % of control.
In the case of `O=C(Nc1cc(Cl)ccc1C(=O)O)c1cccc(C[n+]2ccccc2)c1`, the T/C runs as follows: under setting [7], 161 % of control; under setting [8], 86 % of control; under setting [9], 20 % of control.
Turning to `CCN(CC)c1ccc2[nH]c3c(C(N)=O)cc(=O)c(=O)c=3oc2c1`, the T/C is, setting by setting: under setting [7], 84 % of control; under setting [8], 96 % of control.
For `S=C1CCCCN1`, the T/C was 86 % of control (dose: 75.0 mg/kg/injection, vehicle: distilled water + Tween-80 + alcohol) and 69 % of control (dose: 150.0 mg/kg/injection, vehicle: distilled water + Tween-80 + alcohol).
For `c1cc2c(c(CC3CO3)c1CC1CO1)OCCOCCOCCOCCO2` (configuration not stated), the T/C (dose: 62.5 mg/kg/injection, vehicle: saline + alcohol) was 74 % of control; the T/C (dose: 125.0 mg/kg/injection, vehicle: saline + alcohol) was 98 % of control; the T/C (dose: 250.0 mg/kg/injection, vehicle: saline + alcohol) was 64 % of control; the T/C (dose: 375.0 mg/kg/injection, vehicle: saline + alcohol) is 75 % of control.
As for `Oc1c(Cl)cc(Cl)cc1C=NCCSc1ccc(Cl)cc1`, the T/C is 90 % of control under setting [10]; 100 % of control under setting [11]; 83 % of control (dose: 600.0 mg/kg/injection, vehicle: Klucel (hydroxypropylcellulose) (HPC)).
For the compound `Cc1ccc2c(c1)n([O-])c1cc(Cl)ccc1[n+]2=O`, the T/C was 102 % of control (dose: 35.0 mg/kg/injection, vehicle: saline with Tween-80); 65 % of control (dose: 70.0 mg/kg/injection, vehicle: saline with Tween-80); 108 % of control (dose: 140.0 mg/kg/injection, vehicle: saline with Tween-80); 94 % of control (dose: 280.0 mg/kg/injection, vehicle: saline with Tween-80).
On to `CC(=O)C[n+]1ccccc1Sc1ccc(Cl)cc1`, for which the T/C reads like this: under setting [4], 107 % of control; under setting [5], 80 % of control; under setting [6], 93 % of control; under setting [1], 79 % of control.
As for `Cc1ccc(NN=O)nc1`, the T/C (dose: 5.0 mg/kg/injection, vehicle: water) is 79 % of control; the T/C (dose: 10.0 mg/kg/injection, vehicle: water) was 81 % of control; the T/C (dose: 20.0 mg/kg/injection, vehicle: water) is 61 % of control; the T/C (dose: 40.0 mg/kg/injection, vehicle: water) was 33 % of control.
For the compound `CCC(=O)[O][Bi]([c]1ccccc1)[c]1ccccc1`, the T/C by setting is: (dose: 6.25 mg/kg/injection, vehicle: Klucel (hydroxypropylcellulose) (HPC)) 79 % of control; (dose: 12.5 mg/kg/injection, vehicle: Klucel (hydroxypropylcellulose) (HPC)) 49 % of control; (dose: 25.0 mg/kg/injection, vehicle: Klucel (hydroxypropylcellulose) (HPC)) 43 % of control.
As to `CS(=O)(=O)CS(=O)(=O)OCCF`, the T/C (dose: 6.25 mg/kg/injection, vehicle: saline) is 40 % of control; the T/C under setting [12] was 62 % of control; the T/C under setting [13] was 50 % of control; the T/C (dose: 50.0 mg/kg/injection, vehicle: saline) was 50 % of control.
Take `CCOc1cc2c(cc1C(C)c1ccc(OC)cc1)OCO2` (configuration not stated): the T/C by setting is: (dose: 54.0 mg/kg/injection, vehicle: distilled water + alcohol) 67 % of control; (dose: 90.0 mg/kg/injection, vehicle: distilled water + alcohol) 48 % of control; (dose: 250.0 mg/kg/injection, vehicle: distilled water + alcohol) 4 % of control.
With `Nc1n[nH]c2ccccc12`, the T/C under setting [7] was 69 % of control, the T/C under setting [8] was 52 % of control and the T/C under setting [9] is 33 % of control.
As to `CNC(=O)OCc1nc(SC)n(C)c1COC(=O)NC`, the T/C was 156 % of control under setting [12] and 28 % of control under setting [13].
Turning to `CC1=C(C(N)=O)C(c2ccccc2)NC(=S)N1` (configuration not stated), the T/C runs as follows: under setting [2], 66 % of control; under setting [3], 92 % of control; under setting [10], 83 % of control; under setting [11], 181 % of control.
`C/C(=N\NC(=S)N1CC2CCC(CC2)C1)c1nccs1`: the T/C reads like this: under setting [4], 62 % of control; under setting [5], 47 % of control; under setting [6], 32 % of control.
